Measurements: PMC5719405, “Sex-related pharmacokinetic differences and mechanisms of metapristone (RU486 metabolite)” (Scientific Reports, 2017)
Where two headings read alike, the source gives them in different places.

Assays:
CYP3A4 = assay: Western blotting of rat liver CYP3A4 after 7-day oral metapristone; format: in vivo
Description: To further confirm CYP1A2 and CYP3A4 are the primary CYP isoforms that metabolize metapristone, we administered oral metapristone (22.5 and 45 mg/kg/day for 7 days) to male and female rats, respectively, and measured the activity of liver CYP1A2 and CYP3A4 by using the western blotting assay. We selected western blot staining density from the controls as the basis (100%) to compare changes in CYP1A2 and CYP3A4 activity after metapristone treatment.
The total microsomal protein was extracted from rat livers prepared by diluting liver microsomal suspension with 1 volume of immunoprecipitation assay lysis buffer (150 mM NaCl, 1% NP-40, 0.5% sodium deoxy-cholic acid, 0.1% SDS, and 50 mM Tris-Cl, pH 7.5) for 15 min and then centrifuged at 13,000 rpm 4 °C for 10 min. Aliquots containing 20 µg of protein were separated by SDS-PAGE on a 10% gradient gel (Invitrogen, USA) and transferred to a PVDF membrane that was blocked with 5% non-fat dry milk in Tris-buffered saline with Tween 20 (200 mM Tris–HCl, 1.37 M NaCl, 0.1% Tween 20, pH 7.6) for 1 h. The membrane was then incubated with rabbit anti-rat CYP1A2 polyclonal antibody (1:2000 dilution), rabbit anti-rat CYP3A4 polyclonal antibody (1:1000 dilution) and glyceraldehyde-3-phosphate dehydrogenase (GAPDH) antibody (1:2000 dilution), overnight at 4 °C. After rinsing five times with buffer TBST at room temperature, the membrane was incubated with horseradish peroxidase (HRP)-labeled anti-rabbit immunoglobulin G (IgG) anti-body (Santa Cruz Biotechnology, USA). The immunoreactive bands were visualized using an enhanced chemiluminescence detection system (ChemiDoc™XRS + , Bio-Rad, Hercules, CA, USA) and quantified by using densitometry Image J 1.41 software.

[1] = Single-dose pharmacokinetics of metapristone in rats (p.o. and i.v.), non-compartmental analysis; format: in vivo, Sprague Dawley (SD) rats; conditions: for MRT last: read-out: MRT (0-t)
Description: For pharmacokinetic study, rats were fasted overnight with free access to water using procedures reported previously. Ninety-six SD rats (forty-eight males and forty-eight females) were randomly divided into […] single-dose groups. Rats (six animals/sex/dose) were given a single oral dose of 22.5, 45 and 90 mg/kg metapristone (in soybean oil solution) by intragastric administration or 10 mg/kg metapristone by intravenous bolus injection. Rat blood samples (0.25 mL) were collected from the ocular vein into heparinized tubes prior to and at 0 (before administration), 0.5, 1.0, 1.5, 2.0, 4.0, 6.0, 8.0, 12, 24, 36 and 48 h post-dosing in female rats or 0.5, 1.0, 1.5, 2.0, 4.0, 6.0, 8.0, 12, 24, 30 and 36 h post-dosing in male rats. In the repeated dose study twenty-four rats (six animals/sex/dose) received the same dosing regimen at 45 mg/kg metapristone for 10 days. Blood samples were collected after oral administration on day 1 and 10 at T max. The samples were stored at −80 °C until analysis. Beagle dogs (three animals/sex/dose) were dosed by gavage at 5.62, 11.25, 22.5 mg/kg metapristone (in soybean oil solution). Dog blood (0.25 mL) was withdrawn from the jugular vein at 0.5, 1.0, 2.0, 4.0, 6.0, 8.0, 10, 12, 24 and 48 h after a single oral administration.
The plasma samples obtained by centrifugation at 4000 g for 10 min and stored at −80 °Cuntil analysis. To each 100 µL of plasma sample, 50 µL of internal standard solution were added. Metapristone was then separated and analyzed by the LC/MS/MS method according to the previously described procedures. Peak area ratios of metapristone to the internal standard were plotted against theoretical concentrations. The maximum plasma concentration (C max), the time to reach C max (T max) were determined directly from experimental data. The other pharmacokinetic parameters such as elimination half-life (t 1/2), and mean residence time (MRT) were calculated by using the non-compartmental pharmacokinetics data analysis software of DAS version 3.2 (Bio Guider Co., Shanghai, China). The area under the plasma concentration-time curve from zero to infinity was calculated by using the linear trapezoidal rule with extrapolation to infinity with terminal constant eliminate rate (k e). Bioavailability was calculated as (AUCp.o./AUCi.v.) x (dosei.v./ dosep.o.) 100% as we previously described.

[2] = Sprague-Dawley, rat, plasma, iv, female rats, i.v. 10 mg/kg
[3] = Sprague-Dawley, rat, plasma, iv, male rats, i.v. 10 mg/kg
[4] = Sprague-Dawley, rat, plasma, po, female rats, p.o. 22.5 mg/kg
[5] = Sprague-Dawley, rat, plasma, po, female rats, p.o. 45 mg/kg
[6] = Sprague-Dawley, rat, plasma, po, female rats, p.o. 90 mg/kg
[7] = Sprague-Dawley, rat, plasma, po, male rats, p.o. 22.5 mg/kg
[8] = Sprague-Dawley, rat, plasma, po, male rats, p.o. 45 mg/kg
[9] = Sprague-Dawley, rat, plasma, po, male rats, p.o. 90 mg/kg

CYP3A4 western blot staining density relative to controls (100%) (CYP3A4; female rats, 22.5 mg/kg/day p.o. for 7 days): 107 ± 13%
CYP3A4 western blot staining density relative to controls (100%) (CYP3A4; female rats, 45 mg/kg/day p.o. for 7 days): 128 ± 12%
CYP3A4 western blot staining density relative to controls (100%) (CYP3A4; male rats, 22.5 mg/kg/day p.o. for 7 days): 115 ± 14%
CYP3A4 western blot staining density relative to controls (100%) (CYP3A4; male rats, 45 mg/kg/day p.o. for 7 days): 153 ± 17%
AUC(0-inf) [1, 2]: 9810 ± 2340 ng·h/mL
AUC(0-t) [1, 2]: 9750 ± 2320 ng·h/mL
Cmax [1, 2]: 6050 ± 670 ng/mL
half-life [1, 2]: 5.18 ± 3.41 h
MRT last [1, 2]: 1.68 ± 0.72 h
AUC(0-inf) [1, 3]: 5460 ± 1150 ng·h/mL
AUC(0-t) [1, 3]: 5520 ± 1150 ng·h/mL
Cmax [1, 3]: 4050 ± 250 ng/mL
half-life [1, 3]: 9.45 ± 4.99 h
MRT last [1, 3]: 1.56 ± 0.41 h
AUC(0-inf) [1, 4]: 4230 ± 1640 ng·h/mL
AUC(0-t) [1, 4]: 4050 ± 1620 ng·h/mL
Cmax [1, 4]: 270 ± 50 ng/mL
half-life [1, 4]: 10.8 ± 3.2 h
bioavailability ([1]; Sprague-Dawley, rat, plasma, po, female rats, p.o. 22.5 mg/kg, read-out: F): 18.5%
MRT last [1, 4]: 14.4 ± 5.65 h
Tmax ([1]; Sprague-Dawley, rat, plasma, po, female rats, p.o. 22.5 mg/kg, read-out: T max): 9 ± 7.5 h
Vd/F ([1]; Sprague-Dawley, rat, plasma, po, female rats, p.o. 22.5 mg/kg, read-out: V d /F): 77.3 ± 36 L/kg
AUC(0-inf) [1, 5]: 11300 ± 3170 ng·h/mL
AUC(0-t) [1, 5]: 9630 ± 4540 ng·h/mL
Cmax [1, 5]: 650 ± 220 ng/mL
half-life [1, 5]: 10.7 ± 3.71 h
bioavailability ([1]; Sprague-Dawley, rat, plasma, po, female rats, p.o. 45 mg/kg, read-out: F): 22%
MRT last [1, 5]: 13.7 ± 6.91 h
Tmax ([1]; Sprague-Dawley, rat, plasma, po, female rats, p.o. 45 mg/kg, read-out: T max): 11 ± 12.3 h
Vd/F ([1]; Sprague-Dawley, rat, plasma, po, female rats, p.o. 45 mg/kg, read-out: V d /F): 67.6 ± 47.6 L/kg
AUC(0-inf) [1, 6]: 15600 ± 2100 ng·h/mL
AUC(0-t) [1, 6]: 14900 ± 2190 ng·h/mL
Cmax [1, 6]: 790 ± 200 ng/mL
half-life [1, 6]: 8.83 ± 7.3 h
bioavailability ([1]; Sprague-Dawley, rat, plasma, po, female rats, p.o. 90 mg/kg, read-out: F): 16.9%
MRT last [1, 6]: 15.6 ± 5.82 h
Tmax ([1]; Sprague-Dawley, rat, plasma, po, female rats, p.o. 90 mg/kg, read-out: T max): 7.58 ± 3.38 h
Vd/F ([1]; Sprague-Dawley, rat, plasma, po, female rats, p.o. 90 mg/kg, read-out: V d /F): 86.3 ± 62.9 L/kg
AUC(0-inf) [1, 7]: 4470 ± 1110 ng·h/mL
AUC(0-t) [1, 7]: 3570 ± 1090 ng·h/mL
Cmax [1, 7]: 30 ± 10 ng/mL
half-life [1, 7]: 8 ± 2.4 h
bioavailability ([1]; Sprague-Dawley, rat, plasma, po, male rats, p.o. 22.5 mg/kg, read-out: F): 28.7%
MRT last [1, 7]: 11.2 ± 2.12 h
Tmax ([1]; Sprague-Dawley, rat, plasma, po, male rats, p.o. 22.5 mg/kg, read-out: T max): 5.7 ± 2 h
Vd/F ([1]; Sprague-Dawley, rat, plasma, po, male rats, p.o. 22.5 mg/kg, read-out: V d /F): 804 ± 267 L/kg
AUC(0-inf) [1, 8]: 2040 ± 1330 ng·h/mL
AUC(0-t) [1, 8]: 1960 ± 1320 ng·h/mL
Cmax [1, 8]: 140 ± 100 ng/mL
half-life [1, 8]: 8.11 ± 4.31 h
bioavailability ([1]; Sprague-Dawley, rat, plasma, po, male rats, p.o. 45 mg/kg, read-out: F): 7.9%
MRT last [1, 8]: 13.9 ± 1.17 h
Tmax ([1]; Sprague-Dawley, rat, plasma, po, male rats, p.o. 45 mg/kg, read-out: T max): 7.7 ± 2.9 h
Vd/F ([1]; Sprague-Dawley, rat, plasma, po, male rats, p.o. 45 mg/kg, read-out: V d /F): 768 ± 127 L/kg
AUC(0-inf) [1, 9]: 8920 ± 960 ng·h/mL
AUC(0-t) [1, 9]: 8760 ± 70 ng·h/mL
Cmax [1, 9]: 550 ± 180 ng/mL
half-life [1, 9]: 4.62 ± 3 h
bioavailability ([1]; Sprague-Dawley, rat, plasma, po, male rats, p.o. 90 mg/kg, read-out: F): 17.6%
MRT last [1, 9]: 12.8 ± 2.43 h
Tmax ([1]; Sprague-Dawley, rat, plasma, po, male rats, p.o. 90 mg/kg, read-out: T max): 10.3 ± 2.7 h
Vd/F ([1]; Sprague-Dawley, rat, plasma, po, male rats, p.o. 90 mg/kg, read-out: V d /F): 92.5 ± 91.7 L/kg
bioavailability ([1]; Sprague-Dawley, rat, plasma, male rats, range over three oral doses, read-out: Oral bioavailability): 2.1 to 17.6%
Tmax ([1]; Sprague-Dawley, rat, plasma, rats, both sexes, oral doses of Table 1, read-out: T max after oral absorption): 5.7 to 11 h
CL/F ([1]; female rats, i.v. 10 mg/kg): 17.7 ± 4.17 mL/min/kg
Vd/F ([1]; female rats, i.v. 10 mg/kg): 8.02 ± 6.13 L/kg
CL/F ([1]; female, Sprague-Dawley, rat, plasma, po, 22.5 mg/kg, female rats, p.o. 22.5 mg/kg, read-out: CL/F (converted)): 117 mL/min/kg
CL/F ([1]; female, Sprague-Dawley, rat, plasma, po, 45 mg/kg, female rats, p.o. 45 mg/kg, read-out: CL/F (converted)): 87.5 mL/min/kg
CL/F ([1]; female, Sprague-Dawley, rat, plasma, po, 90 mg/kg, female rats, p.o. 90 mg/kg, read-out: CL/F (converted)): 80.8 mL/min/kg
decrease of CL/F for female rats versus male rats ([1]; i.v. 10 mg/kg): 87%
CL/F ([1]; male rats, i.v. 10 mg/kg): 33 ± 6.5 mL/min/kg
Vd/F ([1]; male rats, i.v. 10 mg/kg): 24.34 ± 5.52 L/kg
CL/F ([1]; male rats, p.o. 45 mg/kg, 45 mg/kg): 782.2 ± 345 mL/min/kg
CL/F ([1]; male, Sprague-Dawley, rat, plasma, po, 22.5 mg/kg, male rats, p.o. 22.5 mg/kg, read-out: CL/F (converted)): 1160 mL/min/kg
CL/F ([1]; male, Sprague-Dawley, rat, plasma, po, 45 mg/kg, male rats, p.o. 45 mg/kg, read-out: CL/F (converted)): 782 mL/min/kg
CL/F ([1]; male, Sprague-Dawley, rat, plasma, po, 90 mg/kg, male rats, p.o. 90 mg/kg, read-out: CL/F (converted)): 196 mL/min/kg
increase of C max for female rats versus male rats ([1]; p.o. 45 mg/kg): 364%
Compound: CC#C[C@]1(O)CC[C@H]2[C@@H]3CCC4=CC(=O)CCC4=C3[C@@H](c3ccc(NC)cc3)C[C@@]21C [metapristone, N-monodemethyl mifepristone]
